# “And” between values parts separate entries of the source, which are not always exact repeats. Equal entries are not always repeated.
# Experiments:
# rat α-thrombin = biological target: T1, rat α-thrombin (Rattus norvegicus, UniProt P18292); test: Protease inhibition, Ki for rat α-thrombin (fluorogenic substrate Z-Gly-Gly-Arg-AMC); assay type: biochemical; conditions: replicates R1-R3
# T1 construct: rat α-thrombin (Molecular Innovations) were used at final concentrations of 2 nM and 3 nM; purchased Molecular Innovations
# Outline: (§1)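 Ki derived through Cheng–Prusoff from IC50s (four-parameter logistic fit) against activity of peptide-free controls. Product fluorescence was read every 3 min over 30 min at 25 °C, substrate Z-Gly-Gly-Arg-AMC at 50 μM. Enzyme was 2 nM human or 3 nM rat α-thrombin, pH 7.4 buffer.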
# [1] = Passive artificial membrane permeability (PAMPA)
# human α-thrombin = human α-thrombin (Homo sapiens, UniProt P00734); test: Protease inhibition, Ki for human α-thrombin (fluorogenic substrate Z-Gly-Gly-Arg-AMC); assay type: biochemical; conditions: replicates R1-R3
# Outline: as §1
# porcine pancreatin = test: Peptide stability in simulated intestinal fluid (SIF); assay type: in vitro ADME; conditions: after 8 h vs 0 h (TIC); average of R1-R3
# Experimental: (§2) Simulated gastric and intestinal fluids were prepared according to the States Pharmacopeia specifications (Test Solutions, United States Pharmacopeia 35, NF 30, 2012). SGF: 0.2 g of sodium chloride was dissolved in 50 ml of water, and the pH was adjusted to 1.2 by addition of 0.7 ml of 10 M hydrochloric acid. Then, 0.32 g of porcine pepsin (Sigma-Aldrich, P7125) was dissolved under gentle agitation, and the volume was filled up to 100 ml with Milli-Q water. SIF: 0.68 g of monobasic potassium phosphate was dissolved in 25 ml of Milli-Q water, and the pH was adjusted to 6.8 by adding 7.7 ml of a 0.2 M sodium hydroxide solution. Next, 1 g of porcine pancreatin (Sigma-Aldrich, P3292) was added under gentle agitation, and the volume was adjusted to 100 ml with Milli-Q water to afford a fine suspension. To test the stability in simulated gastrointestinal fluids, 396 μl of SGF or SIF was pre-heated at 37 °C for 10 min, and 4 μl of a 1 mM peptide solution in DMSO was added. […] Supernatant was analyzed by LC–MS to measure the peptide concentrations at the different timepoints. Residual peptide was calculated by normalizing the concentrations measured at T1 to T0.
# [2] = as above; assay type: in vitro ADME, porcine; conditions: simulated gi fluid; 8 h, 37 °C, pH 6.8; read-out: Proteolytic stability: SIF (8 h) % remaining
# Experimental: as §2
# porcine pepsin = biological target: T2, porcine pepsin (Sus scrofa, UniProt P00791); test: Peptide stability in simulated gastric fluid (SGF); assay type: in vitro ADME
# T2 construct: 0.32 g of porcine pepsin (Sigma-Aldrich, P7125) was dissolved under gentle agitation; purchased Sigma-Aldrich P7125
# Experimental: as §2
# [3] = Metabolic stability in rat liver microsomes (RLMs); conditions: rat, microsomes
# [4] = peptide 1.33E+02 uM, slope of proteolytic substrate cleavage over time
# T2 sequence (P00791 60-385): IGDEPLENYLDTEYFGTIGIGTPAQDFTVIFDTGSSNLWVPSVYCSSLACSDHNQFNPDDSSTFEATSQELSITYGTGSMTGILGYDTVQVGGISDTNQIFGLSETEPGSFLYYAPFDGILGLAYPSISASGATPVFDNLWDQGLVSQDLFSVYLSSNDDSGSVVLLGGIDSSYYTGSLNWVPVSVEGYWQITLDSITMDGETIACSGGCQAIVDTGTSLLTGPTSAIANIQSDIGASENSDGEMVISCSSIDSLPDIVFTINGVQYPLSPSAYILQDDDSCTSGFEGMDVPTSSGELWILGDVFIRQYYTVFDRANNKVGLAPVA
smiles,measurement,setting,value
O=C1CC2CCN(CC2)C(=O)[C@H](Cc2ccccc2)NC(=O)[C@@H](NC(=O)c2ccc(Cl)s2)CSCCS(=O)(=O)CCSCCN1 [compound 13],"Rat alpha thrombin inhibition, slope normalized to DMSO",rat α-thrombin; [4],2.5 and 3.0 and 16.1
same,"Rat alpha thrombin inhibition, slope normalized to DMSO",rat α-thrombin; peptide 1.67E+01 uM,7.6 and 7.2 and 19.3
same,"Rat alpha thrombin inhibition, slope normalized to DMSO",rat α-thrombin; peptide 2.08E+00 uM,36.1 and 33.7 and 41.7
same,Slope normalized to DMSO (proteolytic substrate cleavage over time),rat α-thrombin; peptide 2.54E-04 uM,99.5 and 98.8
same,Slope normalized to DMSO (proteolytic substrate cleavage over time),rat α-thrombin; peptide 3.18E-05 uM,98.9
same,"Rat alpha thrombin inhibition, slope normalized to DMSO",rat α-thrombin; peptide 3.33E+01 uM,4.5 and 3.9 and 18.0
same,"Rat alpha thrombin inhibition, slope normalized to DMSO",rat α-thrombin; peptide 4.17E+00 uM,21.1 and 20.6 and 33.2
same,Slope normalized to DMSO (proteolytic substrate cleavage over time),rat α-thrombin; peptide 6.36E-05 uM,99.5
same,Slope normalized to DMSO (proteolytic substrate cleavage over time),rat α-thrombin; peptide 6.51E-02 uM,99.3
same,"Rat alpha thrombin inhibition, slope normalized to DMSO",rat α-thrombin; peptide 6.67E+01 uM,2.7 and 2.5 and 17.0
same,Slope normalized to DMSO (proteolytic substrate cleavage over time),rat α-thrombin; peptide 8.14E-03 uM,99.8 and 99.9
same,"Rat alpha thrombin inhibition, slope normalized to DMSO",rat α-thrombin; peptide 8.33E+00 uM,14.3 and 13.8 and 26.6
same,PAMPA permeability: % permeability,"[1]; 50 μM, 12–18 h, acceptor concentration relative to equilibrium",2.0 ± 1.7%
same,Papp at 50 μM,"[1]; PAMPA, pH 7.4",0.107 ×10⁻⁶ cm/s
same,Permeability% Average,"[1]; PAMPA, average of R1-R3",2.0%
same,Permeability% R1,"[1]; PAMPA, replicate R1, TIC of top well sample relative to sample at theoretical equilibrium",3.95%
same,Permeability% R3,"[1]; PAMPA, replicate R3, TIC of top well sample relative to sample at theoretical equilibrium",1.45%
same,"Human alpha thrombin inhibition, slope normalized to DMSO",human α-thrombin; peptide 1.02E-03 uM,98.5 and 92.4 and 98.3
same,"Human alpha thrombin inhibition, slope normalized to DMSO",human α-thrombin; peptide 1.04E+00 uM,56.0 and 56.7 and 59.7
same,"Human alpha thrombin inhibition, slope normalized to DMSO",human α-thrombin; peptide 1.27E-04 uM,96.6 and 96.4 and 97.8
same,"Human alpha thrombin inhibition, slope normalized to DMSO",human α-thrombin; peptide 1.30E-01 uM,89.4 and 79.1 and 90.0
same,"Human alpha thrombin inhibition, slope normalized to DMSO",human α-thrombin; [4],3.8 and 5.6 and 7.2
same,"Human alpha thrombin inhibition, slope normalized to DMSO",human α-thrombin; peptide 1.63E-02 uM,96.8 and 95.2 and 98.6
same,"Human alpha thrombin inhibition, slope normalized to DMSO",human α-thrombin; peptide 1.67E+01 uM,11.2 and 13.1 and 6.6
same,"Human alpha thrombin inhibition, slope normalized to DMSO",human α-thrombin; peptide 2.03E-03 uM,96.1 and 91.3 and 98.5
same,"Human alpha thrombin inhibition, slope normalized to DMSO",human α-thrombin; peptide 2.08E+00 uM,44.5 and 43.9 and 46.9
same,"Human alpha thrombin inhibition, slope normalized to DMSO",human α-thrombin; peptide 2.54E-04 uM,98.7 and 101.9 and 92.3
same,"Human alpha thrombin inhibition, slope normalized to DMSO",human α-thrombin; peptide 2.60E-01 uM,82.9 and 76.8 and 85.2
same,"Human alpha thrombin inhibition, slope normalized to DMSO",human α-thrombin; peptide 3.18E-05 uM,98.4 and 99.1 and 103.6
same,"Human alpha thrombin inhibition, slope normalized to DMSO",human α-thrombin; peptide 3.26E-02 uM,83.8 and 90.0 (2×)
same,"Human alpha thrombin inhibition, slope normalized to DMSO",human α-thrombin; peptide 3.33E+01 uM,7.3 and 17.9 and 6.7
same,"Human alpha thrombin inhibition, slope normalized to DMSO",human α-thrombin; peptide 4.07E-03 uM,97.5 and 98.3 and 97.0
same,"Human alpha thrombin inhibition, slope normalized to DMSO",human α-thrombin; peptide 4.17E+00 uM,31.6 and 18.4 and 32.8
same,"Human alpha thrombin inhibition, slope normalized to DMSO",human α-thrombin; peptide 5.09E-04 uM,94.9 and 94.8 and 96.2
same,"Human alpha thrombin inhibition, slope normalized to DMSO",human α-thrombin; peptide 5.21E-01 uM,73.3 and 69.5 and 73.8
same,"Human alpha thrombin inhibition, slope normalized to DMSO",human α-thrombin; peptide 6.36E-05 uM,99.0 and 95.7 and 105.1
same,"Human alpha thrombin inhibition, slope normalized to DMSO",human α-thrombin; peptide 6.51E-02 uM,92.9 and 89.5 and 93.7
same,"Human alpha thrombin inhibition, slope normalized to DMSO",human α-thrombin; peptide 6.67E+01 uM,5.0 (2×) and 5.6
same,"Human alpha thrombin inhibition, slope normalized to DMSO",human α-thrombin; peptide 8.14E-03 uM,98.2 and 94.5 and 89.6
same,"Human alpha thrombin inhibition, slope normalized to DMSO",human α-thrombin; peptide 8.33E+00 uM,20.4 and 21.3 and 21.0
same,"SIF stability, Residual peptide Average",porcine pancreatin,95.61
same,remaining at 8 h,[2],96 ± 11%
same,"SGF stability, Residual peptide Average","porcine pepsin; after 8 h vs 0 h (TIC), average of R1-R3",103.72
same,"SGF stability, Residual peptide","porcine pepsin; after 8 h vs 0 h (TIC), single replicates R1-R3",109.74 and 107.42 and 94.00
same,remaining at 8 h,"porcine pepsin; simulated gi fluid, 8 h, 37 °C, pH 1.2, read-out: Proteolytic stability: SGF (8 h) % remaining",104 ± 8%
same,microsomal CLint,"[3]; CL (ul/min/mg protein) R1, RLM CL, replicate R1",187 µL/min/mg
same,microsomal CLint,"[3]; CL (ul/min/mg protein) R2, RLM CL, replicate R2",117 µL/min/mg
same,microsomal CLint,"[3]; CL (ul/min/mg protein) R3, RLM CL, replicate R3",148 µL/min/mg
same,half-life,"[3]; Half Life (min) R1, RLM metabolic stability, replicate R1, 0-60 min",7.4 min
same,half-life,"[3]; Half Life (min) R2, RLM metabolic stability, replicate R2, 0-60 min",11.9 min
same,half-life,"[3]; Half Life (min) R3, RLM metabolic stability, replicate R3, 0-60 min",9.38 min
same,half-life,"[3]; Metabolic stability: Half life T1/2 (min), RLMs, mean and SD, three measurements",9.5 ± 1.8 min
same,microsomal CLint,"[3]; Metabolic stability: RLM CL (ul/min/mg), RLMs, mean and SD, three measurements",151 ± 29 µL/min/mg
same,microsomal CLint,"[3]; Metabolic stability: RLM CL Average, summary table, average of R1-R3",151 µL/min/mg
same,microsomal CLint,"[3]; Metabolic stability: RLM CL R1, summary table, rounded, replicate R1",187 µL/min/mg
same,microsomal CLint,"[3]; Metabolic stability: RLM CL R2, summary table, rounded, replicate R2",117 µL/min/mg
same,microsomal CLint,"[3]; Metabolic stability: RLM CL R3, summary table, rounded, replicate R3",148 µL/min/mg

# Reference: paper PMC11062899, “De novo development of small cyclic peptides that are orally bioavailable” (Nature Chemical Biology, 2023)
